These results are taken from patent publication US20120035112A1, “NEURONAL DIFFERENTIATION-INDUCING PEPTIDE AND USE THEREOF” (Toagosei Co., Ltd., priority 2009, published 2012).

In the assay the test system is mouse neuronal stem cells. The experiment in a line: Evaluation of neuronal differentiation-inducing activities of synthesized peptides (β3-tubulin fluorescence antibody method, DAPI nuclear stain). Format: cell-based. Particulars: peptide 0.5 μM, 7 days culture in mouse neuronal stem cell growth medium; compared with positive control (differentiation medium, FIG. 16). On the procedure:
The neuronal differentiation-inducing activities of the synthesized peptides obtained in Example 1 (Samples 1 to 15) were examined.
That is, the sample peptide was added to a culture broth of neuronal stem cells collected from a mouse (mouse neuronal stem cell growth medium, a product of Cell Applications), and incubated. Addition was carried out to a concentration of 0.5 μM for each peptide.
Next, once 7 days had elapsed following peptide addition, each of the cultured cells was nuclear stained with DAPI (4′,6-diamidino-2-phenylindole) and examined with a fluorescence microscope. In addition, evaluation with a neuronal differentiation induction marker was carried out on the same samples. That is, using tubulin (specifically, β3-tubulin) as the marker for identifying neurons (nerve cells), the presence of tubulin (i.e., the presence or absence of neurons) within the culture solution was checked by a fluorescence antibody method using a fluorochrome-labeled anti-tubulin antibody for tubulin identification. The number of each figure corresponds to the number of the sample peptide used.
Each of these figures is a fluorescence micrograph (image) obtained by examining the state of neuronal differentiation by mouse neuronal stem cells following addition of the respective sample peptides and 7 days of culturing. The image was prepared by merging a DIC image, a DAPI nuclear stain image, and a fluorescence image showing the results of an investigation by an immune antibody method using fluorochrome-labeled anti-tubulin antibody.
As a positive control, mouse neuronal stem cells were cultured in a mouse neuronal stem cell differentiation medium (product of Cell Applications) without adding any of the peptides. When 7 days had elapsed following the start of culturing, treatment and fluorescence microscopic examination were carried out in the same way as described above.
As a negative control, mouse neuronal stem cells were cultured in a mouse neuronal stem cell […] (product of Cell Applications) without adding any of the peptides. When 7 days had elapsed following the start of culturing, treatment and fluorescence microscopic examination were carried out in the same way as described above.
With ALLLLAAWTVRAGKKRTLRKNDRKKR [Sample 7], the neuronal differentiation-inducing activity entry is “particularly high neuronal differentiation-inducing activities”.
As for LLLLAAWTVRAGKKRTLRKNDRKKR [Sample 8], the entry is “particularly high neuronal differentiation-inducing activities”.
The entry for LALLLLAAWTVRAGKKRTLRKNDRKKR [Sample 6] is “particularly high neuronal differentiation-inducing activities”; for LLLLAAWTARAGKKRTLRKNDRKKR [Sample 2] it is “particularly high neuronal differentiation-inducing activities”.
